Reference: patent US10834951B2, “Organic compounds” (GIVAUDAN SA, priority 2013, dated 2020)

Legend:
[1] = Tasting by a professional panel in diluted low salt soy sauce
Protocol: Kikkoman low salt soy sauce was diluted 100 times. Part of the solution was kept as the reference. To another part was dosed a compound of formula (I). The solutions were tasted by a professional panel.
5.a: 0.1 ppm of 5-oxo-1-stearoylpyrrolidine-2-carboxylic acid (C18:0 pyro-Glu) was added to tap water containing 1% salt reduced kikoman soy sauce (9% salt).
5.b: 0.5 ppm of 5-oxo-1-palmitoylpyrrolidine-2-carboxylic acid (C16:0 pyro-Glu) was added to salt reduced kikoman soy sauce (9% salt).

[2] = Tasting in chicken bouillon base (0.7% salt, 0.5% fat)
Protocol: A compound of formula (I) in a concentration as indicated below was added to a chicken bouillon base (0.7% salt, 0.5% fat). The resultant composition was compared with a chicken bouillon without a compound of formula (I).

[3] = Tasting in fried potato snack product with cheese seasoning (35% fat)
Protocol: A snack product consisting of a fried potato base, containing 35% fat and flavored with cheese seasoning containing salt, MSG, dairy, organic acids, sugars, and a flavour formulation. A compound of formula (I) was added to the snack product at the indicated levels and the tasting results are reported as follows (compared with a snack product without a compound of formula (I)): […]

[4] = Expert tasting in mango flavoured still beverage
Protocol: In a Mango flavoured still beverage, sweetened with 8% sucrose & containing 0.1% citric acid and 1% clear mango juice flavoured with proprietary Mango flavour @ 0.05%, C16:0 pyro-Glu and C18:2-Theanine were added, as such (separate) and in combination.
All samples were evaluated by expert tasters. Tasters were asked to describe the samples focusing on authentic taste, juicy mouthfeel, enhancement, richness, juiciness, long lastingness, salivation, sweetness.
*Base: water, 8% sucrose, 0.1% citric acid, 1% clear mango juice (i.e. very low juice concentration), flavoured with Mango flavor (dosed at 0.05%).

[5] = Expert tasting in orange flavoured Tang powdered soft drink
Protocol: In an orange flavoured Tang powdered soft drink (market product) sweetened with sucrose plus high intensity sweetener and containing citric acid, C18:0 pyro-Glu, and C18:2-Theanine were tested.
All samples were evaluated by expert tasters. Tasters were asked to describe the samples focusing on authentic taste, mouthfeel & body, enhancement, richness, juiciness, long lastingness, salivation, sweetness, masking off notes of high intensity sweetener.

[6] = Tasting in brewed green tea against reference
Protocol: A green tea was brewed by taking 0.6 g of tea/100 ml of water. The water was heated to 80° C. and the tea leaves were left in the solution for 5 minutes. The tea solution was allowed to cool down to room temperature. Part of the solution was kept as a reference. To another part was added a compound of formula (I) in a concentration as indicated below. The solutions were tasted against the reference (i.e. a green tea without a compound of formula (I)).

[7] = 0.5 ppm in chicken bouillon base

Compound | taste description versus reference ([1]; 0.5 ppm in salt reduced kikoman soy sauce (9% salt)) | taste description versus chicken bouillon without compound [2, 7] | taste description versus snack product without compound ([3]; 0.5 ppm in cheese flavoured fried potato snack) | taste description by expert tasters ([4]; 0.1 ppm in mango still beverage base) | taste description versus reference without the compound ([1]; 0.1 ppm in tap water containing 1% salt reduced kikoman soy sauce (9% salt)) | taste description versus chicken bouillon without compound ([2]; 0.2 ppm in chicken bouillon base) | taste description versus snack product without compound ([3]; 1 ppm in cheese flavoured fried potato snack) | taste description by expert tasters ([5]; 0.1 ppm in orange flavoured Tang base) | taste description versus green tea reference ([6]; 0.2 ppm in green tea) | taste description versus snack product without compound ([3]; 0.1 ppm in cheese flavoured fried potato snack) | taste description by expert tasters ([5]; 1 ppm in orange flavoured Tang base) | taste description by expert tasters ([4]; 1 ppm in mango still beverage base) | taste description versus green tea reference ([6]; 0.02 ppm in green tea) | taste description versus green tea reference ([6]; 1 ppb in green tea) | taste description versus green tea reference ([6]; 10 ppb in green tea)
CCCCCCCCCCCCCCCC(=O)N1C(=O)CCC1C(=O)O (stereo not shown) [C16:0 pyro-Glu, 5-oxo-1-palmitoylpyrrolidine-2-carboxylic acid] | a stronger saltiness and to be more lingering, more umami | Nice strong salty, umami lingering body, better meat profile | more rich, more cheesy, more umami. More salty | very juicy and long lasting sweet, salivating |  |  |  |  |  |  |  |  |  |  | 
CCCCCCCCCCCCCCCCCC(=O)N1C(=O)CCC1C(=O)O (stereo not shown) [C18:0 pyro-Glu, 5-oxo-1-stearoylpyrrolidine-2-carboxylic acid] |  |  |  |  | more body and to be more umami, more salty, longer lasting and richer | More umami lingering body, more salty, more rich | more full, more cheesy, longer lasting, more salty | enhanced fruitiness, enhanced mouthfeel. Additionally, the off-notes of the high intensity sweetener were suppressed | more complex and had more mouthfeel |  |  |  |  |  | 
CCCCC/C=C\C/C=C\CCCCCCCC(=O)NC(CCC(=O)NCC)C(=O)O (stereo not shown) [C18:2-Theanine, 5-(ethylamino)-2-[(9Z,12Z)-octadeca-9,12-dienoylamino]-5-oxopentanoic acid] |  | More body and fatty notes, salivating |  |  |  |  |  |  |  | more fatty, more umami, more succulent | enhances sweet juicy orange notes,more body, more mouthfeel. Additionally, the off-notes of the high intensity sweetener were suppressed | fatty skin-like, very juicy, authentic mango, more mouthfeel, long lasting mango taste | better green tea character, was less bitter and had a better mouthfeel | more authentic tea than the reference and to have a nice balance between bitterness and astringency | more astringent, more body and somewhat more bitter umami than the reference
